Test [1] concerns membrane receptors of human breast cancer cells. The experiment in a line: Receptor binding affinity for human breast cancer cell membranes, labelled [D-Trp6]LHRH as ligand. On the procedure: Affinity for peptides to human breast cancer cell membranes is determined by using labelled LHRH and [D-Trp⁶]LHRH. The assay is carried out similarly to that described by T. Kadar et al., Proc. Natl. Acad. Sci. USA, 85, 890-894 (1988) and M. Fekete et al., Endocrinology, 124, 946-955 (1989).
(§1) Table 2 presents the antiovulatory activity and human breast cancer cell membrane receptor binding affinity of the claimed compounds having LHRH-inhibiting properties. The inhibitory action was determined in vivo, in 4-day cycling rats as described [A. Corbin and C. W. Beattie, Endocr. Res. Commun., 2, 1-23 (1975)].

Test [2] has as its system 4-day-cycling rats. The experiment in a line: In vivo antiovulatory activity. The conditions noted are these: 10 µg per rat. On the procedure: This activity of the peptides is determined in 4-day-cycling rats as described [A. Corbin and C. W. Beattie, Endocr. Res. Commun., 2, 1-23 (1975)].
as §1

Test [3] deals with MCF-7 human breast cancer cell line. Kind of test: Cytotoxicity test: inhibition of 3H-thymidine incorporation into DNA. The test is classed as cell-based. On the procedure:
Ability of peptides of Formula I to inhibit incorporation of [³H]thymidine into DNA of monolayer cultures the human mammary tumor cell line MCF-7 is assayed as described [V. K. Sondak et al., Cancer Research, 44, 1725-1728 (1984); F. Holzel et al., J. Cancer Res. Clin. Oncol. 109, 217-226 (1985); M. Albert et al., J. Cancer Res. Clin. Oncol. 109, 210-216 (1985)].
200,000 cells in 200 µl of […] + 2% CFBS were incubated with 1,5 or 10 µg cytotoxic analogs for 3 hours or 23 hours then 1 µCi ³H-thymidine added and incubated an additional 60 min. DNA extracted with 1 N perchloric acid and the radioactivity measured.
(In general: Uptake of a labelled nucleoside into DNA is a usual measure of proliferation.)

The subject of test [4] is human mammary cell line MDA-MB-231. The conditions noted are these: 10µg dose; cited from earlier work.
For test [5], the system named is rat pituitary cell. The conditions noted are these: LH-releasing activity compared to that produced by 3 nM LH-RH; peptide infused for 3 minutes.
Procedure: Ability of compounds to influence LH release in vitro is assayed by using a superfused rat pituitary cell system [S. Vigh and A. V. Schally, Peptides, 5 Suppl.
LH-releasing effect of compounds is determined as follows: each peptide is perfused through the cells for 3 min (1 ml perfusate) at 20-100 pM. LH content of 1 ml fractions collected is determined by radioimmunoassay (RIA). Potency of peptides is compared to that of 3 nM LHRH perfused similarly.
The peptide was infused for 3 minutes at various concentration, and the amount of LH released was compared to that released by 3 nM LHRH.
Where [6] appears, read: Table 2, ¹²⁵I-[D-Trp]⁶ LHRH used as the labelled ligand.
Where [7] appears, read: Table 1, ¹²⁵I-[D-Trp]⁶LHRH used as labelled ligand.

Consider six compounds from EP0450461B1, “LHRH Analogs” (The Administrators of The Tulane Educational Fund, priority 1990, dated 1991).

Marks after values point to notes of the source that are not given here.

Turning to “Ac-Nal(2)-D-Phe(4Cl)-D-Trp-Ser-Arg-D-Lys[A₂pr(HMAQG)₂]-Leu-Arg-Pro-D-Ala-NH₂ [compound 3]”, in test [1] (setting [6]), the “Affinity Constant Ka1” value is 7.05 nM⁻¹ and the “Affinity Constant Ka2” value turned out to be 8.6 µM⁻¹. In addition, in test [2], the “%Ovulation Blockade” value turned out to be 0%. The “% Inhibition at 24 hrs” value in test [3] (Dose 1 µg/ml) came out at 3%. In addition, the “% Inhibition at 24 hrs” value in test [3] (Dose 10 µg/ml) is on record as 11%.
As to “pGlu-His-Trp-Ser-Tyr-D-Lys[Ahx-A₂bu(SAL)₂(Cu)]-Leu-Arg-Pro-Gly-NH₂”, in test [4], the “inhibits the [³H]thymidine incorporation into DNA” value is 87%.
“pGlu-His-Trp-Ser-Tyr-D-Lys(MTX)-Leu-Arg-Pro-Gly-NH₂ [2A]”: in test [1] (setting [7]), the “Affinity Constant Ka1” value turned out to be 5.42 nM⁻¹ and the “Affinity Constant Ka2” value worked out at 1.59 µM⁻¹.
For “pGlu-His-Trp-Ser-Tyr-D-Lys(MTX)-Leu-Arg-Pro-Gly-NH₂ [2B]”, the “Affinity Constant Ka1” value in test [1] (setting [7]) is 0.63 nM⁻¹.
Regarding “Ac-Nal(2)-D-Phe(4Cl)-D-Pal(3)-Ser-Arg-D-Lys[A₂pr(HMAQG)₂]-Leu-Arg-Pro-D-Ala-NH₂ [compound 4]”, the “Affinity Constant Ka1” value in test [1] (setting [6]) turned out to be 2.28 nM⁻¹. Also, the “%Ovulation Blockade” value in test [2] was determined as 40%. In test [3] (Dose 1 µg/ml), the “% Inhibition at 4 hrs” value was 31** % and the “% Inhibition at 24 hrs” value is listed as 15%. In test [3] (Dose 10 µg/ml), the “% Inhibition at 4 hrs” value is on record as 28** % and the “% Inhibition at 24 hrs” value is on record as 40** %.
In the case of `CC(C)C[C@H](NC(=O)[C@@H](CCCCNC(=O)CCCC(=O)OCc1ccc2c(c1)C(=O)c1ccccc1C2=O)NC(=O)[C@H](Cc1ccc(O)cc1)NC(=O)[C@H](CO)NC(=O)[C@H](Cc1c[nH]c2ccccc12)NC(=O)[C@H](Cc1c[nH]cn1)NC(=O)[C@@H]1CCC(=O)N1)C(=O)N[C@@H](CCCNC(=N)N)C(=O)N1CCC[C@H]1C(=O)NCC(N)=O` [compound 1, pGlu-His-Trp-Ser-Tyr-D-Lys(HMAQG)-Leu-Arg-Pro-Gly-NH₂], in test [5], the “Relative Activity” value worked out at 35.

Usually % Inhibition stands for how much of the control response was suppressed.
